Here are results for 5 compounds from patent publication US12522596B2, “Compounds as GLP-1R agonists” (Terns Pharmaceuticals, Inc., priority 2021, dated 2026).

Data set [1] in a line: Metabolic stability in human hepatocytes. It is filed as in vitro ADME. To be noted: cryopreserved hepatocytes; human hepatocytes, 1 μM. The protocol:
(§1) Test compounds were incubated in rat and human hepatocytes and stability was assessed from the substrate […] approach. Test compounds were dissolved in dimethyl sulfoxide (DMSO) to create a 10 mM Stock, and then further diluted to create a 1000× Working Stock of 1 mM with DMSO in 96-well plates for test compounds and the positive control (midazolam). Vials containing cryopreserved hepatocytes were removed from the liquid nitrogen tank and immediately immersed in a 37° C. water bath. The vials were shaken gently until the contents had thawed and were then immediately emptied into 48 mL of pre-warmed HT Medium in a 50 mL conical tube. Cells remaining in the vial were resuspended with 1.0 mL of pre-warmed HT Medium and added to the conical tube. The tube was capped and then gently inverted several times to resuspend the hepatocytes. The cell suspension was centrifuged at 50×g at room temperature for 5 minutes and the supernatant discarded. The cell pellet was loosened by gently swirling the centrifuge tube and was re-suspended in 4 mL of warm Dulbecco's Modified Eagle medium (DMEM). Cell density was determined by a cell counter by Nexcelom, and DMEM medium was added to obtain a target density of 1×10^6 cells/mL. The assay was carried out in 96-well microtiter plates. Test Compounds were incubated at 1 μM with 1×10^6 cells/mL hepatocytes in DMEM for 0, 30, 60, 120 and 240 minutes. The incubation was carried out with gentle shaking at 37° C. under a humid atmosphere of 95% air/5% CO2. The volume of the incubation mixture was 37 μL with a final 0.1% DMSO. At each of the time points, the incubation was stopped by adding 150 μL quenching solution (100% acetonitrile, 0.1% formic acid containing bucetin as an internal standard for positive ESI mode). Subsequently, the mixtures were vortexed for 20 min and centrifuged at 4,000 RPM at 10° C. The supernatant (80 μL) was transferred to a clean 96-well plate and analyzed by LC-MS/MS. Midazolam at 1 μM with a final 0.1% DMSO was included as a positive control to verify assay performance. The percent parent remaining, intrinsic and predicted hepatic clearance and t1/2 were calculated. All samples were analyzed by LC-MS/MS using an AB Sciex API 4000 instrument, coupled to a Shimadzu LC-20AD LC Pump system. Separation was achieved using a Waters Atlantis T3 dC18 reverse phase HPLC column (20 mm×2.1 mm) at a flow rate of 0.5 mL/min. The mobile phase consisted of 0.1% formic acid in water (solvent A) and 0.1% formic acid in 100% acetonitrile (solvent B). Elution conditions are detailed below.
(§2) The ion optics of each test compound were optimized for their declustering potential (DP), […] (CE), collision-cell exit potential (CXP) and used in a selected ion monitoring experiment in the positive ion mode. The peak area ratio of each test compound to internal standard was then evaluated for stability. The extent of metabolism was calculated based on the disappearance of the test compound, compared to its initial concentration. The initial rates of clearance of the test compound were calculated using the linear regression plot of semi-log % remaining of the compound versus time. The elimination rate constant (k) of the linear regression plot was then used to determine t1/2 and the intrinsic clearance (CLint) using the following formula, where Chepatocyte (million cells/mL) is the cell density of the incubation:
(§3) The predicted hepatic clearance (CLhep) was calculated using the well stirred method with the following formula with CLint(in vivo) normalized based on liver weight: […]
(§4) The relevant physiological parameters of liver weight, blood flow, and hepatocellularity for various species are listed below: […]

The test system of the next data set is rat hepatocytes. Kind of data set: Metabolic stability in rat hepatocytes. The class given is in vitro ADME. The protocol:
as §1, §2, §3, §4

Data set [2] in a line: Metabolic stability in rat hepatocytes. The class given is in vitro ADME. To be noted: cryopreserved hepatocytes, 1 μM. The protocol: as §1, §2, §3, §4
Data set [3] can be described thus: Rat pharmacokinetics, oral dosing. The class given is in vivo, Sprague-Dawley rats. To be noted: for Cmax / AUC(0-t) / half-life: male, Sprague-Dawley, rat plasma, 3 mg/kg PO (0.6 mg/mL); for PK properties relative to Reference Compound A: dosed orally. The procedure: Oral dosing: Compounds were formulated at 0.3 mg/mL or 0.6 mg/mL in a solution comprising 5% polyethylene glycol 400 and 95% (12% (w/v) sulfobutyl-β-cyclodextrin in water) (v/v). Formulated compounds were administered to male, 7-11 week old Sprague-Dawley rats by oral gavage at a dose of 3 mg/kg.
Sample collection: Blood collections of about 0.2 mL per time point were performed from jugular vein or other suitable site of each animal, into pre-chilled commercial EDTA-K2 tubes and placed on wet ice until centrifugation. Blood samples were processed for plasma by centrifugation at approximately 4° C., 3,200 g for 10 min. Plasma was collected and transferred into pre-labeled 96 well plate or polypropylene tubes, quick frozen over dry ice and kept at −60° C. or lower until LC-MS/MS analysis.
Data analysis: Plasma concentration versus time data was plotted in graph and analyzed by non-compartmental approaches using the Phoenix WinNonlin 6.3 software program. Related PK parameters were calculated according to dosing route, e.g., CL, Vdss and C0 for intravenous administration, Cmax, Tmax or % F for extravascular administration, and T1/2, AUC(0-t), AUC(0-inf), MRT(0-t), MRT(0-inf) for all routes.

The next data set concerns the target T1, human GLP-1R receptor (Homo sapiens, UniProt P43220).
T1 construct: expressed in transfected cells
Kind of data set: GLP-1R low expression cell assay (cAMP TR-FRET, CHO-K1_hGLP-1Rlow_clone10). It is filed as cell-based. The conditions noted are these: CHO-K1_hGLP-1Rlow_clone10 cells. The procedure: Stable cell lines expressing high and low GLP-1R surface expression were generated in CHO-K1 cells transfected (Fugene 6) with a puromycin selectable DNA plasmid encoding human GLP-1R receptor (accession number: NM_002062.5) under control of an EF1A promoter. Transfected cells were seeded into 24-well plates (9,000 cells/well) containing complete medium and incubated in a humidified incubator at 37° C. with 5% carbon dioxide. After overnight incubation, medium was replaced with complete medium supplemented with puromycin (6 μg/mL) and refreshed every 2-3 days to select for stably transfected cells. Individual pools of selected cells were expanded prior to analysis for responsiveness to GLP-1 control peptide using a TR-FRET assay to detect cAMP (LANCE Ultra CAMP Assay, Perkin Elmer). Briefly, cells were collected in Versene solution, plated in 384-well plates (1,000 cells/well) and combined with serially diluted GLP-1R control peptide (10 nL) using an acoustic dispenser (ECHO). Plates were incubated for 30 minutes at 25° C. prior to the addition of EU-CAMP tracer (5 μL) and Ulight-anti-cAMP (5 μL) reagents to each well, followed by 15 minutes incubation at 25° C. TR-FRET signal was detected using an En Vision Multimode Plate Reader (excitation=320 nm; emission=615 and 655 nm). Dose-response curves were used to generate EC50 values as a measure of responsiveness to the GLP-1R control peptide. Selected cell lines were monitored for responsiveness over multiple passages to ensure stability. […] Briefly, GLP-1R expression was analyzed by flow cytometry using a fluorescein-labeled Exendin-4 peptide fluorescent probe (FLEX). Cells were harvested in Versene solution and washed 3-times with PBS+0.5% BSA before incubation with FLEX reagent (10 μM) for 2 hours at room temperature. After incubation, cells were washed 3-times in PBS+0.5% BSA before final resuspension in PBS prior to analysis by flow cytometry to measure FLEX mean fluorescence intensity (MFI) as a measure of GLP-1R expression on the cell surface.
For compound testing in the CHO-K1_hGLP-1Rlow_clone10 cell line, cells were seeded in 384-well plates (1,000 cells/well). Test compounds were serially diluted in DMSO (10-point, 3-fold dilution), added to wells using an ECHO dispenser (10 nL/well) and plates were centrifuged for 1 min and agitated for 2 min at room temperature prior to 30-minute incubation at 25° C. After incubation, Eu-CAMP (5 μL) and Ulight-anti-cAMP (5 μL) reagents were added to each well, followed by centrifugation for 1 minute, agitation for 2 minutes at room temperature, and final incubation of the plates at 25° C. for 15 minutes. Plates were read using an EnVision microplate reader (excitation=320 nm; emission=615 and 655 nm). Dose-response curves were generated from duplicate wells based on percent activation calculated relative to a control GLP-1 peptide agonist that was run in parallel. EC50 values were determined by fitting percent activation as a function of compound concentration using the Hill equation (XLfit).
Stable cell lines expressing high and low GLP-1R surface expression were generated in CHO-K1 cells transfected (Fugene 6) with a puromycin selectable DNA plasmid encoding human GLP-1R receptor (accession number: NM_002062.5) under control of an EF1A promoter. Transfected cells were seeded into 24-well plates (9,000 cells/well) containing complete medium and incubated in a humidified incubator at 37° C. with 5% carbon dioxide. After overnight incubation, medium was replaced with complete medium supplemented with puromycin (6 μg/mL) and refreshed every 2-3 days to select for stably transfected cells. Individual pools of selected cells were expanded prior to analysis for responsiveness to GLP-1 control peptide using a TR-FRET assay to detect cAMP (LANCE Ultra CAMP Assay, Perkin Elmer).
For orientation: In TR-FRET formats the signal depends on donor and acceptor labels being close together.

T1 sequence (P43220 24-463): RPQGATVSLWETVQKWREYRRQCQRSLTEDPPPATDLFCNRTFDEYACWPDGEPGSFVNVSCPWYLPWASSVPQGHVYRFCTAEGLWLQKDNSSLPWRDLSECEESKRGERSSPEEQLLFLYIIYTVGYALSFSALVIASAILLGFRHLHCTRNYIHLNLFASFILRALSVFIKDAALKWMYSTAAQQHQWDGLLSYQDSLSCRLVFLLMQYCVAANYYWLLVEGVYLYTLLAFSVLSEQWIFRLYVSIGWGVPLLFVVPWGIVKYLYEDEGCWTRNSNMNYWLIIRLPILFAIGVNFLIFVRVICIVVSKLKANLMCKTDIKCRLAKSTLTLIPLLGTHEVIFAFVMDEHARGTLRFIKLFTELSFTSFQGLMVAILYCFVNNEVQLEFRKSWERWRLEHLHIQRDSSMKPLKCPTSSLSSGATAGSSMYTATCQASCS

As to `N#Cc1ccc(COc2cccc(C34CCN(Cc5nc6ccc(C(=O)O)cc6n5Cc5cncs5)CC3C4)n2)c(F)c1` (stereo not shown) [Compound 14], in data set [1], the CLint scaled (usually the rate of metabolic loss divided by the concentration) at 1 μM was determined as 20.1 ± 0.59 mL/min/kg and the half-life – broadly, the time needed for the level to fall by half in the phase considered – at 1 μM is 1.99 ± 0.0583 h. In addition, in the data set with rat hepatocytes, the “CLint relative to reference standard” value is on record as “significantly increased”. Further, in data set [2], the CLint scaled at 1 μM turned out to be 92.8 ± 3.3 mL/min/kg and the half-life at 1 μM was 0.597 ± 0.0212 h. In data set [3] (rat, plasma, po, 3 mg/kg), the Cmax (commonly the peak of the concentration-time curve) was 581 ± 100 ng/mL. Further, in data set [3], the AUC(0-t) (as a rule, the area under the concentration-time curve up to a stated or last time point) worked out at 582 ± 45 ng·h/mL and the half-life was 3.14 ± 1.88 h. For the same compound, in data set [3] (rat), the “PK properties relative to Reference Compound A” value was “similarly improved PK properties”. In addition, a half-maximal effect at human GLP-1R receptor (EC50) was put at 30.1 nM.

In data set [1], `Cc1ncsc1Cn1c(CN2CCC3(c4cccc(OCc5ccc(C#N)cc5F)n4)CC3C2)nc2ccc(C(=O)O)cc21` (stereo not shown) [Compound 12] yielded a CLint scaled at 1 μM of 26.8 ± 0.8 mL/min/kg and a half-life at 1 μM of 1.49 ± 0.0445 h. In the data set with rat hepatocytes, the “CLint relative to reference standard” value is listed as “significantly increased” and the “Half-life relative to reference” value is reported as “significantly lower”. In data set [2], the CLint scaled at 1 μM was 91.7 ± 1.76 mL/min/kg and the half-life at 1 μM came out at 0.604 ± 0.0117 h. For the same compound, the EC50 – broadly, the concentration giving half of the maximal effect – on human GLP-1R receptor was determined as 232 nM.

In data set [1], `O=C(O)c1ccc2nc(CN3CCC(c4nccc(OCc5ccc(Cl)cc5F)n4)CC3)n(Cc3cncs3)c2c1` [Compound 23] gave a CLint scaled at 1 μM of 42.3 ± 1.59 mL/min/kg and a half-life at 1 μM of 1.11 ± 0.0523 h. In the data set on rat hepatocytes, the “CLint relative to reference standard” value is on record as “significantly increased” and the “Half-life relative to reference” value is recorded as “significantly lower”. In data set [2], this compound displayed a CLint scaled at 1 μM of 57.9 ± 1.25 mL/min/kg and a half-life at 1 μM of 0.957 ± 0.0205 h. Besides, a half-maximal response on human GLP-1R receptor (EC50) required 3.3 nM.

As for `[2H]C([2H])(Oc1cccc(C2CCN(Cc3nc4ccc(C(=O)O)cc4n3Cc3cncs3)CC2)n1)c1ccc(C#N)cc1F` [Compound 27], in data set [1], the CLint scaled at 1 μM was found to be 15.6 ± 0.7 mL/min/kg and the half-life at 1 μM is 2.57 ± 0.117 h. Further, in the data set with rat hepatocytes, the “CLint relative to reference standard” value is listed as “significantly lower” and the “Half-life relative to reference” value is on record as “significantly higher”. In data set [2], this compound gave a CLint scaled at 1 μM of 29 ± 0.58 mL/min/kg and a half-life at 1 μM of 1.91 ± 0.0383 h. In data set [3] (rat, plasma, po, 3 mg/kg), this compound gave an area under the curve AUC(0-t) of 617 ± 248 ng·h/mL, a peak concentration (Cmax) of 478 ± 186 ng/mL and a half-life of 1.37 ± 0.18 h. Further, the “PK properties relative to Reference Compound A” value in data set [3] (rat) is recorded as “similarly improved PK properties”. In addition, on human GLP-1R receptor, the EC50 came out at 8.6 nM.

In data set [1], `N#Cc1cnc(COc2cccc(C3CCN(Cc4nc5ccc(C(=O)O)cc5n4Cc4cncs4)CC3)n2)c(F)c1` [Compound 29] yielded a CLint scaled at 1 μM of 15.3 ± 0.76 mL/min/kg and a half-life at 1 μM of 2.61 ± 0.13 h. Moreover, in the data set with rat hepatocytes, the “CLint relative to reference standard” value is listed as “significantly lower” and the “Half-life relative to reference” value is “significantly higher”. In data set [2], this compound displayed a CLint scaled at 1 μM of 35.8 ± 1.42 mL/min/kg and a half-life at 1 μM of 1.55 ± 0.0615 h. In data set [3] (rat, plasma, po, 3 mg/kg), this compound showed an AUC(0-t) of 411 ± 32 ng·h/mL, a Cmax of 299 ± 62.9 ng/mL and a half-life of 1.54 ± 0.46 h. Besides, the “PK properties relative to Reference Compound A” value in data set [3] (rat) was “similarly improved PK properties”. This compound also had an EC50 at human GLP-1R receptor of 27.8 nM.
